From US4146622A, “Aziridinyl quinone anti-transplanted tumor agents” (priority 1977, dated 1979)
In brackets after ≈: the same amount, converted by molar mass. Several values for one entry are separate records, joined by “and”; a condition that tells them apart may be missing. Equal values may be shown once. Entries after “also recorded” stand apart in the source; their conditions may differ.

Key:
lymphoid leukemia L1210 [1] = experiment: Intraperitoneal (IP) lymphoid leukemia L1210 transplanted mouse tumor test; format: in vivo, murine; settings: for OD (optimum dose) / ILS (percentage increase in life span) / T - C (average weight change of test group minus control) / animals alive per 6 test animals on day of termination: Table VIII; for T - C (average weight change of test group minus control): day 5
Description: ^(a) Day 1-9 treatment schedule (9 injections)
^(b) Day 1,5,9 treatment schedule (3 injections)
^(c) Day 1 only treatment schedule (1 injection)
^(f) Percentage increase in life span of treated animals [(treated
survival .div. control survival) × 100%] - 100%

[2] = system: P388 lymphocytic leukemia; experiment: Intraperitoneal (IP) lymphocytic leukemia P388 transplanted mouse tumor test; format: in vivo, murine; settings: for OD (optimum dose): IP P388, QD1-9
Description: (§1) ^b Ip tumor implantation, ip QD1-9 treatment schedule.
(§2) The L1210, P388 and B16 test systems described in Table II utilize intraperitoneal (IP) tumor implantation and IP drug treatment while the Lewis lung system employs subcutaneous tumor implantation and IP treatment.
(§3) Aqueous saline solution (0.9%) was used as the drug vehicle. Normally, five doses were employed per experiment with the top dose chosen to produce toxicity. The lower doses were 50% of each preceeding dose.
(§4) Consistent with NCI antitumor test protocols, intraperitoneal (IP) administration of the drug was employed with all five tumor systems investigated. Tumor implantation was IP in the systems designated IP leukemia L1210 and P388 as well as B16 melanoma.

B16 melanocarcinoma = experiment: Intraperitoneal B16 melanocarcinoma transplanted mouse tumor test; format: in vivo, murine; settings: for OD (optimum dose) / ILS (percentage increase in life span): Table IX; for OD (optimum dose): B16, QD1-9; for ILS (percentage increase in life span): B16, QD1-9, at OD; for antitumor activity: B16 melanoma
Description: as §1, §2, §3, §4

lymphoid leukemia L1210 [3] = experiment: Intracerebral (IC) lymphoid leukemia L1210 test; format: in vivo, murine; settings: Table X; for OD (optimum dose): IC L1210, QD1-9; for ILS (percentage increase in life span): IC L1210, QD1-9, at OD
Description: ^b Ic tumor implantation, ip QD1-9 treatment schedule.
The L1210, P388 and B16 test systems described in Table II utilize intraperitoneal (IP) tumor implantation and IP drug treatment while the Lewis lung system employs subcutaneous tumor implantation and IP treatment. All three CNS tumor models (Table III) use intracerebral (IC) tumor implantation and IP treatment.
Consistent with NCI antitumor test protocols, intraperitoneal (IP) administration of the drug was employed with all five tumor systems investigated. Tumor implantation was IP in the systems designated IP leukemia L1210 and P388 as well as B16 melanoma. Intracerebral (IC) tumor implantation was utilized in the IC L1210 and ependymoblastoma tumor systems.

ependymoblastoma = experiment: Intracerebral (IC) ependymoblastoma (EM) brain tumor test; format: in vivo, murine; settings: for antitumor activity: IC ependymoblastoma (EM); for OD (optimum dose) / ILS (percentage increase in life span) / animals alive per 6 test animals on day of termination: Table X, IC ependymoblastoma; for OD (optimum dose): QD1-5; for ILS (percentage increase in life span) / animals alive per 6 test animals on day of termination: QD1-5, at OD; for animals alive per 6 test animals on day of termination / survivors (number in parentheses) EM: day 60; for survivors (number in parentheses) EM: per 6 test animals
Description: ^c Ic tumor implantation, ip QD1-5 treatment schedule.
^g Number of animals alive per six test animals on day of termination
of experiment (day 99 for expt 133 and day 60 for expt 136 and 144).
A third IC transplanted mouse tumor model, the ependymoblastoma system, was also studied. This system requires intracerebral implantation of a solid tumor fragment while the IC L1210 and IC P388 systems utilize IC inoculated ascites tumor fluid. All three use IP drug treatment however. […] Cures (survivors from the group of six mice on the last day of the experiment) are indicated. Experiments 136 and 144 were terminated on day 60. Since the number of cures was about the same, the differences in T/C values in these two experiments reflect differences in the life span of the two different sets of control animals. Experiment 133 was terminated on day 99 with a resulting higher activity value.
The hydrophilic dihydroxypropylamino compound (No. 39), which was curative in the IP L1210 and P388 leukemia systems, was active but gave a large spread in ILS values (53-186%). […] Again, its hydrophilic character may present transport problems in this IC tumor system.

[4] = Room temperature water solubility; format: physicochemical; settings: water; Table VII; room temperature, approximate; read-out: Approx. H2O Sol.
Method: In the following examples, all melting points are uncorrected and were recorded on a Thomas-Hoover capillary melting point apparatus. Elemental analyses were performed by NIAMDD, NIH, Bethesda, Maryland. Fluoranil, ethyleneimine and 2l -methylethyleneimine were obtained commerically. […] New compounds were identified by nmr and ir spectroscopy. In the tetraamino derivatives, the methylene protons of the aziridine rings usually occurred as a singlet at δ2.0-2.2 in CDCl3 or DMSO-d6. This absorption appeared at δ2.40 (CDCl3) for compound 11. Carbonyl absorption frequencies (nujol mull) occurred in the range 1620-1640 cm^-1 for the tetraamino compounds. Satisfactory elemental analyses (+0.4% of calculated values) are indicated by elemental symbols in Table VII. Room temperature water solubilities were determined by the incremental addition (pipet) of water to a weighed amount of compound with shaking. The solubility values in Table VII must be considered as approximate.

[5] = L1210 system, Q4D and QD1-9 schedules
[6] = IP L1210, tetraaminobenzoquinone series (Table VIII)
[7] = IP L1210, Day 1 only (1 injection)
[8] = IP L1210, Q4D(1,5,9) (3 injections)
[9] = Table XI, per 6 test animals, day 30
[10] = Table IX, IP P388, QD1-9, at OD

| SMILES | antitumor activity (lymphoid leukemia L1210 [1]; [5]) | OD (optimum dose) (lymphoid leukemia L1210 [1]; [8]) | ILS (percentage increase in life span) (lymphoid leukemia L1210 [1]; IP L1210, Q4D(1,5,9), at OD) | OD (optimum dose) (lymphoid leukemia L1210 [1]; IP L1210, QD1-9 (9 injections)) | ILS (percentage increase in life span) (lymphoid leukemia L1210 [1]; IP L1210, QD1-9, at OD) | ILS (percentage increase in life span) [2, 10] | OD (optimum dose) (B16 melanocarcinoma) | ILS (percentage increase in life span) (B16 melanocarcinoma) | OD (optimum dose) (ependymoblastoma) | ILS (percentage increase in life span) (ependymoblastoma) | solubility [4] [µg/mL] | OD (optimum dose) ([2]; Table IX) | also measured |
| --- | --- | --- | --- | --- | --- | --- | --- | --- | --- | --- | --- | --- | --- |
| CCOC(=O)NC1=C(N2CC2C)C(=O)C(NC(=O)OCC)=C(N2CC2C)C1=O (stereo not drawn) [Compound 10] | abolished activity |  |  |  |  |  |  |  |  |  |  |  |  |
| CC(=O)NC1=C(N2CC2(C)C)C(=O)C(NC(C)=O)=C(N2CC2(C)C)C1=O [Compound 21] | abolished activity |  |  |  |  |  |  |  |  |  |  |  |  |
| CCCSC1=C(N2CC2)C(=O)C(SCCC)=C(N2CC2)C1=O [Compound 6] | inactive |  |  |  |  |  |  |  |  |  |  |  |  |
| CCNC1=C(N2CC2)C(=O)C(NCC)=C(N2CC2)C1=O [Compound 35, 2,5-Diaziridinyl-3,6-bis(ethylamino)-1,4-benzoquinone] |  | 3.0 mg/kg/injection and 1.5 mg/kg/injection | 75% and 57% | 1.5 mg/kg/injection | 112% and 91% | 160% and 103% | 0.4 mg/kg/injection and 0.7 mg/kg/injection | 26% and 24% | 1.5 mg/kg/injection | 218% and 187% | 500 (≈ 1810 µM) |  | antitumor activity (lymphoid leukemia L1210 [1]; [6]): activity appears to peak; OD (optimum dose) (lymphoid leukemia L1210 [1]; [7]): 1.5 mg/kg/injection; ILS (percentage increase in life span) (lymphoid leukemia L1210 [1]; IP L1210, Day 1 only, at OD): 68% and 54%; T - C (average weight change of test group minus control) (lymphoid leukemia L1210 [1]; IP L1210, QD1-9, at OD): -3.3 grams; animals alive per 6 test animals on day of termination (lymphoid leukemia L1210 [1]; IP L1210, QD1-9, at OD, day 30): 2 and 1; ILS (%) IP L1210 (lymphoid leukemia L1210 [1]; Table XI, outstanding activity): 112%; survivors (number in parentheses) IP L1210 (lymphoid leukemia L1210 [1]; [9]): 2; OD (optimum dose) (lymphoid leukemia L1210 [3]): 3.0 mg/kg/injection; ILS (percentage increase in life span) (lymphoid leukemia L1210 [3]): 44% and 40%; antitumor activity (ependymoblastoma): most active; animals alive per 6 test animals on day of termination (ependymoblastoma): 2; survivors (number in parentheses) EM (ependymoblastoma; Table XI): 2 |
| CNC1=C(N2CC2C)C(=O)C(NC)=C(N2CC2C)C1=O (stereo not drawn) [Compound 26] |  | 12.5 mg/kg/injection | 93% and 52% | 5.0 mg/kg/injection | 69% and 37% |  | 5.0 mg/kg/injection | 70% and 48% | 10.0 mg/kg/injection and 5.0 mg/kg/injection |  | < 100 |  | OD (optimum dose) (lymphoid leukemia L1210 [1]; [7]): 5.0 mg/kg/injection and 10.0 mg/kg/injection; ILS (percentage increase in life span) (lymphoid leukemia L1210 [1]; IP L1210, Day 1 only, at OD): 42% and 39%; antitumor activity (B16 melanocarcinoma): active; ILS (%) B16 (B16 melanocarcinoma; Table XI, outstanding activity): 70%; OD (optimum dose) (lymphoid leukemia L1210 [3]): 5.0 mg/kg/injection and 10.0 mg/kg/injection; ILS (percentage increase in life span) (lymphoid leukemia L1210 [3]): 39% and 25%; antitumor activity (ependymoblastoma): highly active; animals alive per 6 test animals on day of termination (ependymoblastoma): 1; ILS (%) EM (ependymoblastoma; Table XI, outstanding activity): 294%; survivors (number in parentheses) EM (ependymoblastoma; Table XI): 1 |
| CCCCNC1=C(N2CC2)C(=O)C(NCCCC)=C(N2CC2)C1=O [Compound 37] |  | 12.5 mg/kg/injection and 8.2 mg/kg/injection | 44% and 25% | 10.0 mg/kg/injection and 5.0 mg/kg/injection | 36% and 30% | 64% and 49% | 10.0 mg/kg/injection and 5.0 mg/kg/injection |  | 6.0 mg/kg/injection and 3.0 mg/kg/injection |  | < 100 | 5.0 mg/kg/injection and 10.0 mg/kg/injection | antitumor activity (lymphoid leukemia L1210 [1]; [6]): significant reduction in activity; OD (optimum dose) (lymphoid leukemia L1210 [1]; [7]): 10.0 mg/kg/injection; ILS (percentage increase in life span) (lymphoid leukemia L1210 [1]; IP L1210, Day 1 only, at OD): 11% and 5%; antitumor activity (ependymoblastoma): has activity |
| CCOC(=O)NC1=C(NCCCl)C(=O)C(NC(=O)OCC)=C(NCCCl)C1=O [Compound 12] | activity was abolished |  |  |  |  |  |  |  |  |  |  |  |  |
| O=C1C(N2CCCC2)=C(N2CC2)C(=O)C(N2CCCC2)=C1N1CC1 [Compound 43, 2,5-Diaziridinyl-3,6-dipyrrolidino-1,4-benzoquinone] |  | 6.2 mg/kg/injection | 43% | 2.0 mg/kg/injection |  | 72% and 55% | 2.0 mg/kg/injection | 28% and 18% | 1.6 mg/kg/injection and 3.1 mg/kg/injection |  | 500 (≈ 1520 µM) |  | OD (optimum dose) (lymphoid leukemia L1210 [1]; [7]): 4.0 mg/kg/injection and 2.0 mg/kg/injection; T - C (average weight change of test group minus control) (lymphoid leukemia L1210 [1]; IP L1210, Q4D(1,5,9), at OD): -2.3 grams |
| O=C1C(N2CC2)=C(N2CCCC(O)C2)C(=O)C(N2CC2)=C1N1CCCC(O)C1 (stereo not drawn) [Compound 45] |  | 6.0 mg/kg/injection and 4.0 mg/kg/injection | 104% and 84% | 3.0 mg/kg/injection | 59% and 44% | 95% and 78% | 1.0 mg/kg/injection | 40% and 37% |  | 64% and 48% | 1000 (≈ 2570 µM) | 1.0 mg/kg/injection | animals alive per 6 test animals on day of termination (lymphoid leukemia L1210 [1]; IP L1210, Q4D(1,5,9), at OD, day 30): 2; antitumor activity (B16 melanocarcinoma): approached minimal reproducible activity |
| CCOC(=O)NC1=C(N2CC2(C)C)C(=O)C(NC(=O)OCC)=C(N2CC2(C)C)C1=O [Compound 11] | abolished activity |  |  |  |  |  |  |  |  |  |  |  |  |
| CCSC1=C(N2CC2)C(=O)C(SCC)=C(N2CC2)C1=O [Compound 5] | the activity was not reproducible |  |  |  |  |  |  |  |  |  |  |  | activity (%ILS) (lymphoid leukemia L1210 [1]; IP L1210, Q4D schedule): 30% |
| O=C1C(F)=C(N2CC2)C(=O)C(N2CCOCC2)=C1N1CC1 [Compound 31, 2,5-diaziridinyl-3-fluoro-5-morpholino-1,4-benzoquinone] |  |  |  |  |  | 57% and 54% | 0.7 mg/kg/injection | 18% and 9% | 0.8 mg/kg/injection and 1.5 mg/kg/injection | 49% and 40% | 2000 (≈ 6820 µM) | 3.0 mg/kg/injection and 6.0 mg/kg/injection | antitumor activity ([2]; IP P388): active |
| O=C1C(N2CCCCC2)=C(N2CC2)C(=O)C(N2CCCCC2)=C1N1CC1 [Compound 44] |  |  | 26% and 22% | 10.0 mg/kg/injection | 28% | 46% and 77% | 5.0 mg/kg/injection and 2.5 mg/kg/injection |  |  | 68% and 46% | < 100 | 5.0 mg/kg/injection and 10.0 mg/kg/injection | ILS (percentage increase in life span) (lymphoid leukemia L1210 [1]; IP L1210, Day 1 only, at OD): 16% and 8%; T - C (average weight change of test group minus control) (lymphoid leukemia L1210 [1]; IP L1210, QD1-9, at OD): -2.2 grams |
| CCCNC1=C(N2CC2)C(=O)C(NCCC)=C(N2CC2)C1=O [Compound 36] |  | 6.2 mg/kg/injection | 28% and 25% | 6.2 mg/kg/injection | 48% and 43% | 151% and 108% | 5.0 mg/kg/injection | 36% and 32% | 10.0 mg/kg/injection and 5.0 mg/kg/injection | 259% and 143% | < 100 | 6.0 mg/kg/injection | antitumor activity (lymphoid leukemia L1210 [1]; [6]): significant reduction in activity; animals alive per 6 test animals on day of termination ([2]; Table IX, IP P388, QD1-9, at OD, day 30): 2; survivors (number in parentheses) P388 [2, 9]: 2; antitumor activity (ependymoblastoma): highly active; also recorded: still very active; also recorded: most active; animals alive per 6 test animals on day of termination (ependymoblastoma): 2 and 1; survivors (number in parentheses) EM (ependymoblastoma; Table XI): 2 |
